Like-named read-outs stand apart in the source and are kept apart here.
How the values were obtained:
[1] = In vivo hydrolysis of orally given ABA-GE to ABA, plasma HPLC-MS; set-up: species or system rat; details: 30 and 60 min after gavage of synthetic ABA-GE, Wistar rats n=3
Text: Wistar rats (n=3) were given an amount of synthetic ABA-GE by gavage in order to evaluate its in vivo hydrolysis, resulting in the release of ABA. […] Therefore, the ABA-GE present in the aqueous apricot extract contributes to the effective dose of ABA taken with the extract, as it can be hydrolyzed to yield free ABA.
FIG. 4: HPLC-MS analysis of representative plasma samples from a rat subjected to gavage with a solution containing synthetic ABA-GE. […] The amount of ABA released by hydrolysis from its conjugated form ABA-GE at different times (30 and 60 min after gavage) was measured by HPLC-MS. The coefficient of absorbance of ABA-GE at 254 nm, used for chromatographic analysis, is approximately 10 times lower than that of free ABA. This explains the different area of their respective chromatographic peaks.

[2] = Body weight gain induced by chronic high-dose glucose in mice; assay type: in vivo, mouse; details: female CD1 mice, ABA 1 μg/Kg BW with glucose 1 g/Kg BW daily in drinking water, 12 weeks
Experimental: Five, week-old female CD1 mice (outbread) (9 per group) were administered glucose in the drinking water, without (controls) or with the addition of synthetic ABA. To achieve the required daily dose of glucose (1 g/kg BW) and of ABA (1 μg/Kg BW) the daily volume of water drank by the animals used for the test was preliminary established. Based on this volume (5 ml/day), and taking into account an average weight of the mice of 30 grams, the water administered to the animals, contained 0,006 g/ml of glucose and 0,006 μg/ml ABA. The weight control was performed after 12 weeks of treatment on the two groups of animals fasted for 17 hours before measurement of the weight. The reason for using female CD1 for this test was that they show a natural predisposition to accumulation of adipose tissue that is not found, instead, in males of the same strain.
FIG. 8. Daily oral intake of synthetic ABA at the dose of 1 μg/Kg reduces the body weight increase induced by the chronic intake of high-dose glucose (1g/Kg) in mice. Five-week old female CD1 mice (outbred) (9/group) received daily, in the drinking water, a glucose solution without (controls) or with synthetic ABA (see Materials and Methods for details). Body weight was determined after 12 weeks of treatment, and both groups of animals were fasted for 17 hours before measurement. […]

[3] = test system: Male CD1 mice; assay: Muscle performance in mice (spontaneous wheel running); assay type: in vivo, mouse; details: ABA 1 μg/Kg BW with glucose 1 g/Kg BW for 12 weeks
Experimental: Male CD1 mice (outbread) (8 per group) were administered glucose with the drinking water without (controls) or with the addition of synthetic ABA. The concentrations of glucose and of ABA in water were calculated considering the average daily volume drank by each mice so as to reach a dose of 1 g/Kg BW and 1 μg/Kg BW of ABA. After 12 weeks of treatment the mice (average weight 45.1 and 43.3 grams for the animals treated with glucose and glucose+ABA, respectively) were kept 12 hours in two separate cages, each equipped with a wheel connected to a digital odometer measuring the total distance traveled on the wheel and the time of rotation of the wheel. The tests were performed during the night time on animals with freely available food and water containing glucose alone (controls) or glucose+ABA. The reason for using male CD1 mice for this experiment is their natural predisposition to develop more muscle mass compared to females from the same strain.
Table 6. […] Male CD1mice (outbred) (8/group) with a mean weight of 45.1 and 43.3 g for animals treated with glucose and glucose+ABA, respectively, were kept for the same time (12 hours) in two cages, each containing a wheel connected to a digital cyclometer, capable of measuring the total distance travelled and the duration of rotation of the wheel. The tests (n=2 for each group of animals) were performed during the night hours, with ad libitum food and water, containing glucose (controls) or glucose+ABA.

[4] = Stability tests of ABA at high temperatures (autoclave sterilization); assay type: physicochemical; details: autoclave sterilization at 121° C. for 8 min; HPLC-MS
Experimental: Experiments were performed to evaluate the heat stability of synthetic ABA or of ABA naturally present in aqueous and supercritical extracts. Samples containing known nanomolar concentrations of ABA (either synthetic or present in the extracts) were divided into two aliquots of equal volume and subjected or not (control) to autoclave sterilization at 121° C. for 8 min (the condition generally applied to the sterilization of food). After sterilization, 100 μl of each aliquot and its un-sterilized control were injected into an analytical Hypercarb column (Thermo Scientific, Pittsburgh, Pa.) (4.6×100 mm; particle size 5 μm). Solvent A was water containing 0.1% formic acid (FOA), solvent B was acetonitrile containing 0.1% FOA and solvent flux was 0.8 ml/min. The linear elution gradient was from 100% A to 100% B in 30 min. Fractions were taken every 30 sec, lyophilized, re-dissolved in 11 μl of a solution composed of 90% solvent A and 10% solvent B of the HPLC-coupled mass spectrometry analysis and [^2H6]-ABA was added as an internal standard. Samples were analyzed as previously described under “Determination of the ABA content in several foods”. The amount of ABA present in the aliquots subjected to sterilization was unchanged compared with that measured in the control samples.

[5] = test system: Wistar male rats
Experimental: For the determination of blood glucose in rats, blood samples were taken from the tail vein of anesthetized animals and blood glucose was measured with a glucometer (Bayer). The quantification of insulin on the same animals, was carried out by sampling blood from the orbital sinus, immediately adding heparin and subjecting each sample to centrifugation at 22000×g for 30 sec: aliquots of plasma were stored at −20° C. The plasma insulin concentration was determined with an ELISA kit (Bertin-Pharma, Montigny, France).
Wistar male rats (obtained from Charles River, Milan, Italy), age between 9 and 13 weeks, were divided into two groups (12 animals per group) and fasted for 17 hours. After mild sedation with diazepam, 1 g/kg BW of glucose was administered by gavage in about 300-400 μl of aqueous solution, containing or not 1 μg/Kg BW of synthetic ABA, or the same dose of ABA or ABA-GE endogenously present in a supercritical or water plant extract. Immediately after gavage, rats were anesthetized with xylazine and ketamine. Blood glucose was measured with a glucometer on blood taken from the tail vein immediately before gavage (time zero) and 15, 30 and 60 minutes after gavage. Each measurement was performed in duplicate.
Two groups of male Wistar rats (12 animals per group), fasted for 17 hours, were subjected to an OGTT (1 g/Kg BW glucose) , without or with 1 μg/Kg BW of synthetic ABA. Glycemia was measured with a glucometer in duplicate on blood taken from the tail vein at baseline (immediately before gavage) and at the indicated times after gavage. Insulinemia was measured by ELISA, in duplicate on plasma samples. Results are mean ±SD.

[6] = test system: db/db mice; details: cited from earlier work
[7] = test system: myoblasts; details: myoblasts incubated in vitro with 100 nM ABA (Bruzzone et al. 2012); cited from earlier work
[8] = synthetic ABA 1 μg/Kg BW during OGTT
[9] = synthetic ABA 1 μg/Kg BW with glucose 1 g/Kg BW by gavage

Row | chromatographic peak of free ABA in plasma compared to 0 min [1] | Compound | weight increase compared to the controls [2] | maximal speed recorded compared with that of the controls [3] [times] | Time of use ([3]; wheel available 12 hours) [min] | Total distance covered (m) ([3]; wheel available 12 hours) | amount of ABA after sterilization compared with control samples [4] | glycemic profile compared to the controls ([5]; ABA 95 μg/Kg BW during OGTT) | glycemic profile compared to the controls ([5]; ABA 100 mg/Kg BW during OGTT) | insulin AUC compared to control rats ([5]; ABA 100 mg/Kg BW during OGTT) | insulin response to the glucose load ([5]; ABA 1 and up to 95 μg/Kg BW) | plasma concentration corresponding to the dose ([5]; male, Wistar, rat, in vivo) | mean level of plasmatic insulin compared to controls [5, 8] | reduction of insulin AUC compared to controls [5, 8] | AUC of glycemia compared to the controls [5, 9] | glycemic profile compared to the controls [5, 9] | minimum effective dose improving glucose tolerance ([6]; dietary intake, mice diabetic by leptin receptor mutation (Guri et al., 2007)) [mg/kg] | weight increase compared with the controls ([6]; mice chronically treated with ABA at 100 mg/Kg BW (literature)) | glucose transport [7]
1 | marked increase | CC1=CC(=O)CC(C)(C)[C@@]1(O)/C=C/C(C)=C\C(=O)O[C@@H]1O[C@H](CO)[C@@H](O)[C@H](O)[C@H]1O [ABA-GE, ABA-glucosyl ester] | – | – | – | – | – | – | – | – | – | – | – | – | – | – | – | – | –
2 | – | CC1=CC(=O)CC(C)(C)C1(O)/C=C/C(C)=C\C(=O)O (racemic) [ABA, 2-cis, 4-trans-abscisic acid] | significantly lower weight increase | 3.2 | 105 | 2693 | unchanged | reduced compared to the controls | reduced compared to the controls | comparable to that of control rats | significant decrease | less than 10 nM | significantly lower | about 15 times | significantly lower AUC of glycemia | significantly reduced glycemic profile | 100 | not dissimilar compared with the controls | increased glucose transport
